Our source for the GI50 and TGI values is PubChem BioAssay (NCI).

Where “and” joins values, the source holds several entries; their conditions need not be identical. Equal values may be shown once.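 Interpolation was linear, between the two tested concentrations surrounding the appropriate level; five concentrations were tested over 48 hours in 96-well plates. GI50 marks 50% less growth. TGI marks complete inhibition of growth.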 Where only a bound is given, the exact number is not on record here.

Test systems include NCI/ADR-RES ovarian; MDA-MB-435; SK-MEL-28 melanoma; SK-MEL-2 melanoma; OVCAR-8 ovarian; SW-620 colon; MDA-MB-231 breast; MOLT-4 leukemia; EKVX NSCLC; A498 renal.
Test in all cases: NCI tumour cell line growth inhibition, 48 h

As to `CN1C(=O)N(C)C2C1NN=c1s/c(=C\c3c[nH]c4ccccc34)c(=O)n12` (centres undefined), the GI50 is 0.034 µM in the assay with NCI/ADR-RES ovarian; 0.0162 µM in the assay on MDA-MB-435; 34.5 µM with SK-MEL-28 melanoma; 34.6 µM in the assay with SK-MEL-2 melanoma; 0.0547 µM in the assay with OVCAR-8 ovarian; 0.0442 µM in the assay on SW-620 colon. Further, the GI50 with MDA-MB-231 breast is 0.0671 µM; in the assay with MOLT-4 leukemia, 0.0644 µM; in the assay on EKVX NSCLC it was 0.0577 µM; with A498 renal, 0.0688 µM. In addition, the TGI was 0.0482 µM in the assay on MDA-MB-435; greater than 100 µM in the assay with SK-MEL-28 melanoma; greater than 100 µM in the assay on SK-MEL-2 melanoma; greater than 100 µM in the assay with OVCAR-8 ovarian; greater than 100 µM with SW-620 colon; greater than 100 µM with MDA-MB-231 breast. Further, the TGI was greater than 100 µM in the assay on MOLT-4 leukemia, greater than 100 µM in the assay on EKVX NSCLC and 0.602 µM with A498 renal.

Turning to `CC(N)(Cc1c[nH]c2ccccc12)C(=O)O` (centres undefined), the GI50 in the assay on NCI/ADR-RES ovarian, in the assay on MDA-MB-435, in the assay on SK-MEL-28 melanoma, in the assay on SK-MEL-2 melanoma, with OVCAR-8 ovarian and in the assay on SW-620 colon was greater than 2500 µM in each case. Further, the GI50 in the assay with MDA-MB-231 breast, in the assay on MOLT-4 leukemia, in the assay with EKVX NSCLC and in the assay with A498 renal was greater than 2500 µM in each case. For the same compound, the TGI with NCI/ADR-RES ovarian, with MDA-MB-435, in the assay with SK-MEL-28 melanoma, in the assay on SK-MEL-2 melanoma, with OVCAR-8 ovarian and with SW-620 colon was greater than 2500 µM throughout. The TGI in the assay on MDA-MB-231 breast, in the assay with MOLT-4 leukemia, with EKVX NSCLC and with A498 renal was greater than 2500 µM throughout.

Consider `Fc1c[c-]c(-c2ccccn2)c(F)c1.[CH3-].[Pt+2].c1ccc([PH+](c2ccccc2)c2ccccn2)cc1`, for which the GI50 with NCI/ADR-RES ovarian is 1.81 µM; in the assay with MDA-MB-435 it was 1.74 µM; in the assay with SK-MEL-28 melanoma, 1.64 µM; with SK-MEL-2 melanoma, 2.22 µM; in the assay with OVCAR-8 ovarian it was 2.25 µM; in the assay with SW-620 colon, 1.92 µM. For the same compound, the GI50 in the assay with MDA-MB-231 breast was 1.61 µM; in the assay on MOLT-4 leukemia, 1.04 µM; with EKVX NSCLC, 1.96 µM; in the assay with A498 renal, 1.48 µM. Also, the TGI was 5.35 µM in the assay on NCI/ADR-RES ovarian; 3.45 µM in the assay with MDA-MB-435; 3.15 µM with SK-MEL-28 melanoma; 5.86 µM in the assay with SK-MEL-2 melanoma; greater than 100 µM in the assay with OVCAR-8 ovarian; 4.55 µM in the assay with SW-620 colon. The TGI is 3.31 µM with MDA-MB-231 breast, greater than 100 µM in the assay on MOLT-4 leukemia, 5.52 µM with EKVX NSCLC and 4.06 µM with A498 renal.

For `COc1ccc(-c2ccc3ncc4c(c3c2)n(-c2ccc(N3CCNCC3)c(C(F)(F)F)c2)c(=O)n4C)cn1`, the GI50 was 0.0531 µM and 0.0595 µM with NCI/ADR-RES ovarian; < 0.01 µM and 0.00272 µM with MDA-MB-435; < 0.01 µM and 0.00679 µM with SK-MEL-28 melanoma; < 0.01 µM and 0.0101 µM in the assay on SK-MEL-2 melanoma; < 0.01 µM and 0.00948 µM in the assay with OVCAR-8 ovarian; 0.0103 µM and 0.0117 µM in the assay on SW-620 colon. Further, the GI50 with MDA-MB-231 breast is < 0.01 µM and 0.00601 µM; in the assay with MOLT-4 leukemia, < 0.01 µM and 0.00654 µM; in the assay with EKVX NSCLC, < 0.01 µM and 0.00426 µM; in the assay with A498 renal it was < 0.01 µM and 0.00224 µM. For the same compound, the TGI with NCI/ADR-RES ovarian is 1.27 µM and 0.712 µM; with MDA-MB-435 it was 0.0732 µM and 0.106 µM; in the assay on SK-MEL-28 melanoma it was 0.101 µM and 0.0648 µM; in the assay on SK-MEL-2 melanoma, 0.0369 µM and 0.044 µM; with OVCAR-8 ovarian, 0.332 µM and 0.396 µM; in the assay with SW-620 colon it was 0.131 µM and 0.132 µM. The TGI with MDA-MB-231 breast was 0.823 µM and 0.446 µM; in the assay on MOLT-4 leukemia, 0.186 µM and 0.143 µM; with EKVX NSCLC it was 0.0379 µM and 0.258 µM; with A498 renal it was < 0.01 µM and 0.012 µM.

For the compound `CSC1=Nc2c(c(C)c(-c3ccccc3)n2CCCCl)C2=NC(=O)CN12`, the GI50 in the assay with NCI/ADR-RES ovarian is 4.29 µM; with MDA-MB-435, 2.03 µM; in the assay on SK-MEL-28 melanoma, 10.2 µM; in the assay with SK-MEL-2 melanoma it was 10.4 µM; with OVCAR-8 ovarian, 16.3 µM; with SW-620 colon it was 4.79 µM. Besides, the GI50 was 5.64 µM in the assay on MDA-MB-231 breast, 3.93 µM with MOLT-4 leukemia, 6.89 µM in the assay on EKVX NSCLC and 3.89 µM in the assay on A498 renal. For the same compound, the TGI in the assay with NCI/ADR-RES ovarian was greater than 100 µM; in the assay on MDA-MB-435, 4.65 µM; with SK-MEL-28 melanoma, 25.4 µM; in the assay with SK-MEL-2 melanoma, 27.6 µM; in the assay on OVCAR-8 ovarian, 72.8 µM; in the assay on SW-620 colon, 53.5 µM. Besides, the TGI in the assay with MDA-MB-231 breast is 23.8 µM; with MOLT-4 leukemia, greater than 100 µM; in the assay on EKVX NSCLC it was 31 µM; in the assay on A498 renal, 15 µM.

On to `NC(=O)c1ccc2nc(-c3ccc(C4(N)CCC4)cc3)c(-c3ccccc3)n2n1`, for which the GI50 is 15.1 µM in the assay on NCI/ADR-RES ovarian; 11.8 µM with MDA-MB-435; 10.9 µM with SK-MEL-28 melanoma; 15.2 µM in the assay with SK-MEL-2 melanoma; 17.4 µM in the assay on OVCAR-8 ovarian; 15 µM in the assay with SW-620 colon. For the same compound, the GI50 was 14.3 µM with MDA-MB-231 breast, 0.741 µM in the assay with MOLT-4 leukemia, 13.6 µM with EKVX NSCLC and 0.0734 µM in the assay with A498 renal. Besides, the TGI is 41.2 µM in the assay on NCI/ADR-RES ovarian; 24.4 µM in the assay with MDA-MB-435; 23.7 µM in the assay with SK-MEL-28 melanoma; 31.5 µM in the assay on SK-MEL-2 melanoma; 39.3 µM in the assay on OVCAR-8 ovarian; 31.3 µM in the assay with SW-620 colon. The TGI in the assay on MDA-MB-231 breast worked out at 32.3 µM; with MOLT-4 leukemia it was 19.2 µM; in the assay on EKVX NSCLC, 49.6 µM; with A498 renal, 0.642 µM.

In the case of `C[n+]1c2cc(N)ccc2cc2ccc(N)cc21` (tested in a mixture with another compound), the GI50 with NCI/ADR-RES ovarian is 0.746 µM; in the assay with MDA-MB-435 it was 0.615 µM; with SK-MEL-28 melanoma, 1.33 µM; with SK-MEL-2 melanoma, 1.62 µM; in the assay with OVCAR-8 ovarian it was 0.377 µM; with SW-620 colon it was 0.0791 µM. Moreover, the GI50 is 0.618 µM with MDA-MB-231 breast, 0.209 µM in the assay on MOLT-4 leukemia, 0.261 µM in the assay on EKVX NSCLC and 0.133 µM with A498 renal. Further, the TGI stood at 4.84 µM in the assay on NCI/ADR-RES ovarian; 2.1 µM in the assay with MDA-MB-435; 7.48 µM with SK-MEL-28 melanoma; 15.3 µM in the assay with SK-MEL-2 melanoma; 2.23 µM with OVCAR-8 ovarian; 6.2 µM in the assay on SW-620 colon. The TGI with MDA-MB-231 breast was determined as 2.5 µM; in the assay on MOLT-4 leukemia it was 0.746 µM; with EKVX NSCLC it was 1.77 µM; in the assay with A498 renal, 0.515 µM.
